Measurements: the SangsterLogP compilation

Test: method code SF, from DOI: 10.1002/jps.2600650919, PMID: 966149
Conditions: pH 7.4

SMILES | logD
CC12CCC(=O)C=C1C1(CC1)CC1C2CCC2(C)C1CCC21CCC(=O)O1 (stereo not given) | 3.15
CC(=O)SC1CC2=CC(=O)CCC2(C)C2CCC3(C)C(CCC34CCC(=O)O4)C12 (stereo not given) | 2.78
CC(C)OC(=O)C1CC2=CC(=O)CCC2(C)C2CCC3(C)C(C4CCC(=O)O4)CCC3C12 (stereo not given) | 2.82
CCOC(=O)C1CC2=CC(=O)CCC2(C)C2CCC3(C)C(C4CCC(=O)O4)CCC3C12 (stereo not given) | 2.54
CC12CCC(=O)C=C1CCC1C3CCC4(CCC(=O)O4)C3(C)CC3OC312 (stereo not given) | 1.96
CC12CCC(=O)C=C1CCC1C3CCC4(CCC(=O)O4)C3(C)CC(O)C12F (stereo not given) | 2.4
COC(=O)C1CC2=CC(=O)CCC2(C)C2CCC3(C)C(CCC34CCC(=O)O4)C12 (stereo not given) | 2.18

The next lines start with the values.

logD | SMILES
3.08 | CC12CCC(=O)C=C1C1CC1C1C2CCC2(C)C1CCC21CCC(=O)O1 (stereo not given)
1.67 | CC12CCC(=O)C=C1CC(C#N)C1C2CCC2(C)C1CCC21CCC(=O)O1 (stereo not given)
2.68 | CC12CCC(=O)C=C1C=CC1C2CCC2(C)C1CCC21CCC(=O)O1 (stereo not given)
